Experimental data: the supplement of paper PMC11451515

What was measured:
Experiment in all cases: AUC of viability dose-response curve (% viability x log10 dose units); higher = less sensitive
Conditions in all cases: 48 h
SEM cells = system: SEM cells
Summary of the method: (§1)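 Area under the curve was integrated by trapezoidal rule from a log-logistic fit of normalised viability, with curves exceeding full viability scaled and quality-control failures removed. The fit had four parameters over log10 doses. Viability came from CellTiter-Glo One luminescence, normalised per plate to DMSO and cell-free wells, after leukemia cells adapted to each medium (500 or 1000 cells/well, 1536-well plates) were exposed to library compounds in DMSO for 48 h at 37°C. The 11 threefold doses ran from 47 μM to 0.79 nM.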

P12-Ichikawa = system: P12-Ichikawa
Summary of the method: as §1

NOMO1 = system: NOMO1
Summary of the method: as §1

[1] = RPMI 5 mM glucose + 10% dialyzed FBS

Cc1ccc(C(=O)Nc2cccc(C(F)(F)F)c2)cc1-c1ccc2nc(NCCN3CCOCC3)ncc2c1
AUC of viability dose-response curve (SEM cells; HPLM + 10% dialyzed FBS): 384
AUC of viability dose-response curve (SEM cells; RPMI 5 mM glucose + 10% FBS): 378
AUC of viability dose-response curve (SEM cells; [1]): 378
AUC of viability dose-response curve (P12-Ichikawa; HPLM + 10% dialyzed FBS): 418
AUC of viability dose-response curve (P12-Ichikawa; RPMI 5 mM glucose + 10% FBS): 408
AUC of viability dose-response curve (P12-Ichikawa; [1]): 408
AUC of viability dose-response curve (NOMO1; HPLM + 10% dialyzed FBS): 384
AUC of viability dose-response curve (NOMO1; RPMI 5 mM glucose + 10% FBS): 388
AUC of viability dose-response curve (NOMO1; [1]): 384

CC(C)=CCC/C(C)=C/CC/C(C)=C/CSc1ccccc1C(=O)O
AUC of viability dose-response curve (SEM cells; HPLM + 10% dialyzed FBS): 348
AUC of viability dose-response curve (SEM cells; RPMI 5 mM glucose + 10% FBS): 355
AUC of viability dose-response curve (SEM cells; [1]): 374
AUC of viability dose-response curve (P12-Ichikawa; HPLM + 10% dialyzed FBS): 402
AUC of viability dose-response curve (P12-Ichikawa; RPMI 5 mM glucose + 10% FBS): 366
AUC of viability dose-response curve (P12-Ichikawa; [1]): 390
AUC of viability dose-response curve (NOMO1; HPLM + 10% dialyzed FBS): 393
AUC of viability dose-response curve (NOMO1; RPMI 5 mM glucose + 10% FBS): 432
AUC of viability dose-response curve (NOMO1; [1]): 395

O=C([O-])C[C@H](O)C[C@H](O)/C=C/c1c(C2CC2)nc2ccccc2c1-c1ccc(F)cc1
AUC of viability dose-response curve (SEM cells; HPLM + 10% dialyzed FBS): 395
AUC of viability dose-response curve (SEM cells; RPMI 5 mM glucose + 10% FBS): 418
AUC of viability dose-response curve (SEM cells; [1]): 413
AUC of viability dose-response curve (P12-Ichikawa; HPLM + 10% dialyzed FBS): 407
AUC of viability dose-response curve (P12-Ichikawa; RPMI 5 mM glucose + 10% FBS): 375
AUC of viability dose-response curve (P12-Ichikawa; [1]): 390
AUC of viability dose-response curve (NOMO1; HPLM + 10% dialyzed FBS): 443
AUC of viability dose-response curve (NOMO1; RPMI 5 mM glucose + 10% FBS): 450
AUC of viability dose-response curve (NOMO1; [1]): 440

CCc1cc(C(N)=S)ccn1
AUC of viability dose-response curve (SEM cells; HPLM + 10% dialyzed FBS): 407
AUC of viability dose-response curve (SEM cells; RPMI 5 mM glucose + 10% FBS): 434
AUC of viability dose-response curve (SEM cells; [1]): 447
AUC of viability dose-response curve (P12-Ichikawa; HPLM + 10% dialyzed FBS): 448
AUC of viability dose-response curve (P12-Ichikawa; RPMI 5 mM glucose + 10% FBS): 463
AUC of viability dose-response curve (P12-Ichikawa; [1]): 452
AUC of viability dose-response curve (NOMO1; HPLM + 10% dialyzed FBS): 459
AUC of viability dose-response curve (NOMO1; RPMI 5 mM glucose + 10% FBS): 434
AUC of viability dose-response curve (NOMO1; [1]): 460

O=C/1NC(=O)C(=C1C2=CN=C3C=CC=C[N]23)/C4=C[N]5CCN(CC6=C5C4=CC=C6)C(=O)N7CCOCC7
AUC of viability dose-response curve (SEM cells; HPLM + 10% dialyzed FBS): 138
AUC of viability dose-response curve (SEM cells; RPMI 5 mM glucose + 10% FBS): 153
AUC of viability dose-response curve (SEM cells; [1]): 151
AUC of viability dose-response curve (P12-Ichikawa; HPLM + 10% dialyzed FBS): 334
AUC of viability dose-response curve (P12-Ichikawa; RPMI 5 mM glucose + 10% FBS): 301
AUC of viability dose-response curve (P12-Ichikawa; [1]): 370
AUC of viability dose-response curve (NOMO1; HPLM + 10% dialyzed FBS): 470
AUC of viability dose-response curve (NOMO1; RPMI 5 mM glucose + 10% FBS): 465
AUC of viability dose-response curve (NOMO1; [1]): 462

CC1=C(/C=C/C(C)=C/C=C/C(C)=C\C(=O)O)C(C)(C)CCC1
AUC of viability dose-response curve (SEM cells; HPLM + 10% dialyzed FBS): 405
AUC of viability dose-response curve (SEM cells; RPMI 5 mM glucose + 10% FBS): 450
AUC of viability dose-response curve (SEM cells; [1]): 379
AUC of viability dose-response curve (P12-Ichikawa; HPLM + 10% dialyzed FBS): 445
AUC of viability dose-response curve (P12-Ichikawa; RPMI 5 mM glucose + 10% FBS): 400
AUC of viability dose-response curve (P12-Ichikawa; [1]): 415
AUC of viability dose-response curve (NOMO1; HPLM + 10% dialyzed FBS): 438
AUC of viability dose-response curve (NOMO1; RPMI 5 mM glucose + 10% FBS): 408
AUC of viability dose-response curve (NOMO1; [1]): 420

N[C@H]2CN(CC12CC1)c3c(F)cc4c(c3Cl)[N@@](C=C(C4=O)C(=O)O)C5C[C@H]5F (stereo partly specified)
AUC of viability dose-response curve (SEM cells; HPLM + 10% dialyzed FBS): 412
AUC of viability dose-response curve (SEM cells; RPMI 5 mM glucose + 10% FBS): 431
AUC of viability dose-response curve (SEM cells; [1]): 398
AUC of viability dose-response curve (P12-Ichikawa; HPLM + 10% dialyzed FBS): 439
AUC of viability dose-response curve (P12-Ichikawa; RPMI 5 mM glucose + 10% FBS): 417
AUC of viability dose-response curve (P12-Ichikawa; [1]): 395
AUC of viability dose-response curve (NOMO1; HPLM + 10% dialyzed FBS): 420
AUC of viability dose-response curve (NOMO1; RPMI 5 mM glucose + 10% FBS): 387
AUC of viability dose-response curve (NOMO1; [1]): 413

NC(=O)[C@H]1CCS[C@@H]2C[C@]3(CCCN3C(=O)Cc3ccc(NC(=O)COc4ccc(Cl)cc4Cl)cc3)C(=O)N12
AUC of viability dose-response curve (SEM cells; HPLM + 10% dialyzed FBS): 376
AUC of viability dose-response curve (SEM cells; RPMI 5 mM glucose + 10% FBS): 325
AUC of viability dose-response curve (SEM cells; [1]): 362
AUC of viability dose-response curve (P12-Ichikawa; HPLM + 10% dialyzed FBS): 316
AUC of viability dose-response curve (P12-Ichikawa; RPMI 5 mM glucose + 10% FBS): 343
AUC of viability dose-response curve (P12-Ichikawa; [1]): 362
AUC of viability dose-response curve (NOMO1; HPLM + 10% dialyzed FBS): 356
AUC of viability dose-response curve (NOMO1; RPMI 5 mM glucose + 10% FBS): 378
AUC of viability dose-response curve (NOMO1; [1]): 409

O=C(CC12CC3CC(CC(C3)C1)C2)Nc1cccc2nc(NCCNCCO)ccc12
AUC of viability dose-response curve (SEM cells; HPLM + 10% dialyzed FBS): 386
AUC of viability dose-response curve (SEM cells; RPMI 5 mM glucose + 10% FBS): 405
AUC of viability dose-response curve (SEM cells; [1]): 392
AUC of viability dose-response curve (P12-Ichikawa; HPLM + 10% dialyzed FBS): 424
AUC of viability dose-response curve (P12-Ichikawa; RPMI 5 mM glucose + 10% FBS): 410
AUC of viability dose-response curve (P12-Ichikawa; [1]): 412
AUC of viability dose-response curve (NOMO1; HPLM + 10% dialyzed FBS): 436
AUC of viability dose-response curve (NOMO1; RPMI 5 mM glucose + 10% FBS): 406
AUC of viability dose-response curve (NOMO1; [1]): 399

Cc1c(-c2cccc3c(CCCOc4cccc5ccccc45)c(C(=O)O)n(Cc4cccnc4)c23)c(COc2ccc(N3CCN([S+](=O)([O-])N(C)C)CC3)cc2)nn1C
AUC of viability dose-response curve (SEM cells; HPLM + 10% dialyzed FBS): 415
AUC of viability dose-response curve (SEM cells; RPMI 5 mM glucose + 10% FBS): 456
AUC of viability dose-response curve (SEM cells; [1]): 423
AUC of viability dose-response curve (P12-Ichikawa; HPLM + 10% dialyzed FBS): 427
AUC of viability dose-response curve (P12-Ichikawa; RPMI 5 mM glucose + 10% FBS): 421
AUC of viability dose-response curve (P12-Ichikawa; [1]): 418
AUC of viability dose-response curve (NOMO1; HPLM + 10% dialyzed FBS): 407
AUC of viability dose-response curve (NOMO1; RPMI 5 mM glucose + 10% FBS): 416
AUC of viability dose-response curve (NOMO1; [1]): 423

ClC1=CC=C2N/C3=N/C(=O)CN3CC2=C1Cl
AUC of viability dose-response curve (SEM cells; HPLM + 10% dialyzed FBS): 468
AUC of viability dose-response curve (SEM cells; RPMI 5 mM glucose + 10% FBS): 446
AUC of viability dose-response curve (SEM cells; [1]): 456
AUC of viability dose-response curve (P12-Ichikawa; HPLM + 10% dialyzed FBS): 464
AUC of viability dose-response curve (P12-Ichikawa; RPMI 5 mM glucose + 10% FBS): 456
AUC of viability dose-response curve (P12-Ichikawa; [1]): 452
AUC of viability dose-response curve (NOMO1; HPLM + 10% dialyzed FBS): 456
AUC of viability dose-response curve (NOMO1; RPMI 5 mM glucose + 10% FBS): 445
AUC of viability dose-response curve (NOMO1; [1]): 410

C=C1C(=O)OC(CCCCCCCC)C1C(=O)O (stereo unspecified)
AUC of viability dose-response curve (SEM cells; HPLM + 10% dialyzed FBS): 461
AUC of viability dose-response curve (SEM cells; RPMI 5 mM glucose + 10% FBS): 457
AUC of viability dose-response curve (SEM cells; [1]): 468
AUC of viability dose-response curve (P12-Ichikawa; HPLM + 10% dialyzed FBS): 468
AUC of viability dose-response curve (P12-Ichikawa; RPMI 5 mM glucose + 10% FBS): 467
AUC of viability dose-response curve (P12-Ichikawa; [1]): 468
AUC of viability dose-response curve (NOMO1; HPLM + 10% dialyzed FBS): 474
AUC of viability dose-response curve (NOMO1; RPMI 5 mM glucose + 10% FBS): 462
AUC of viability dose-response curve (NOMO1; [1]): 464

Cc1ccc([N+](=O)[O-])cc1[S+](=O)([O-])N(C)/N=C/c1cnc2ccc(Br)cn12
AUC of viability dose-response curve (SEM cells; HPLM + 10% dialyzed FBS): 203
AUC of viability dose-response curve (SEM cells; RPMI 5 mM glucose + 10% FBS): 207
AUC of viability dose-response curve (SEM cells; [1]): 222
AUC of viability dose-response curve (P12-Ichikawa; HPLM + 10% dialyzed FBS): 250
AUC of viability dose-response curve (P12-Ichikawa; RPMI 5 mM glucose + 10% FBS): 240
AUC of viability dose-response curve (P12-Ichikawa; [1]): 244
AUC of viability dose-response curve (NOMO1; HPLM + 10% dialyzed FBS): 196
AUC of viability dose-response curve (NOMO1; RPMI 5 mM glucose + 10% FBS): 223
AUC of viability dose-response curve (NOMO1; [1]): 217

O=C(Nc1nnc(-c2ccco2)o1)c1cc(-c2ccccc2)nc2ccccc12
AUC of viability dose-response curve (SEM cells; HPLM + 10% dialyzed FBS): 442
AUC of viability dose-response curve (SEM cells; RPMI 5 mM glucose + 10% FBS): 348
AUC of viability dose-response curve (SEM cells; [1]): 443
AUC of viability dose-response curve (P12-Ichikawa; HPLM + 10% dialyzed FBS): 379
AUC of viability dose-response curve (P12-Ichikawa; RPMI 5 mM glucose + 10% FBS): 448
AUC of viability dose-response curve (P12-Ichikawa; [1]): 451
AUC of viability dose-response curve (NOMO1; HPLM + 10% dialyzed FBS): 393
AUC of viability dose-response curve (NOMO1; RPMI 5 mM glucose + 10% FBS): 455
AUC of viability dose-response curve (NOMO1; [1]): 451
